Assay in all cases: relative viability (nuclei count vs DMSO), 5 days (fraction); higher = more cells survive
Compound in test [1]: CCOC1=CC=CC=C1N=NC2=C(NN(C2=O)C3=NC(=CS3)C4=CC=CC=C4)C [BAM7] + CCNC(=O)c1noc(-c2cc(C(C)C)c(O)cc2O)c1-c1ccc(CN2CCOCC2)cc1 [Luminespib] (partner 0.01 µM)
Summed up:
(§1)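 Lung cancer cell lines were pin-tool dosed in 1536-well plates on the day after seeding, with either a lone drug or a fixed anchor-drug dose plus five library-drug doses (not always all listed) in √10 steps. Nuclei were counted on 4× images after 5 days. Relative viability is the ratio of treated-well to vehicle-well nuclei counts, with each value a median of duplicate plates.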

Compound in test [2]: CCOC1=CC=CC=C1N=NC2=C(NN(C2=O)C3=NC(=CS3)C4=CC=CC=C4)C [BAM7] + CC(=O)c1c(C)c2cnc(Nc3ccc(N4CCNCC4)cn3)nc2n(C2CCCC2)c1=O [Palbociclib] (partner 0.5 µM)
The essentials: as §1

Compound in test [3]: CCOC1=CC=CC=C1N=NC2=C(NN(C2=O)C3=NC(=CS3)C4=CC=CC=C4)C [BAM7] + Cc1nc(NC(=O)N2CCC[C@H]2C(N)=O)sc1-c1ccnc(C(C)(C)C(F)(F)F)c1 [Alpelisib] (partner 2 µM)
Summed up:
as §1

Compound in test [4]: CCOC1=CC=CC=C1N=NC2=C(NN(C2=O)C3=NC(=CS3)C4=CC=CC=C4)C [BAM7] + C[C@@H](Oc1cc(-c2cnn(C3CCNCC3)c2)cnc1N)c1c(Cl)ccc(F)c1Cl [Crizotinib] (partner 1 µM)
Summed up:
as §1

Compound in test [5]: CCOC1=CC=CC=C1N=NC2=C(NN(C2=O)C3=NC(=CS3)C4=CC=CC=C4)C [BAM7] + N=C(N)NC(=N)NCCc1ccccc1 [Phenformin] (partner 250 µM)
The essentials: as §1

UMC-11: the relative viability was 1.07 in test [1] (first compound 0.5 µM); 1.11 in test [1] (first compound 5 µM); 1.1 in test [1] (first compound 15.81 µM); 0.991 in test [1] (first compound 50 µM); 0.32 in test [2] (first compound 0.5 µM); 0.341 in test [2] (first compound 5 µM). Further, the relative viability in test [2] (first compound 15.81 µM) is 0.342; in test [2] (first compound 50 µM) it was 0.336; in test [3] (first compound 0.5 µM), 1.11; in test [3] (first compound 5 µM), 1.12; in test [3] (first compound 15.81 µM), 0.992; in test [3] (first compound 50 µM), 0.989. Moreover, the relative viability in test [4] (first compound 0.5 µM) was found to be 0.661; in test [4] (first compound 5 µM), 0.786; in test [4] (first compound 15.81 µM), 0.624; in test [4] (first compound 50 µM), 0.636; in test [5] (first compound 0.5 µM), 0.336; in test [5] (first compound 5 µM), 0.371. For the same cell line, the relative viability was 0.311 in test [5] (first compound 15.81 µM) and 0.312 in test [5] (first compound 50 µM).

These data come from the supplement of paper PMC10307832.
